{
  "source": "patent US20250034139A1",
  "about": "“AMINE COMPOUNDS HAVING ANTI-INFLAMMATORY, ANTIFUNGAL, ANTIPARASITIC, AND ANTICANCER ACTIVITY” (PHARMA CINQ, LLC, priority 2013, published 2025)",
  "key": {"[1]": {"tested_on": "TPA induced chronic skin inflammation", "assay": "Example E: TPA induced chronic skin inflammation mouse model, ear thickness", "type": "in vivo", "conditions": "day 22, 0.05 mg/ear daily topical from day 7, TPA-treated mice", "excerpt": "Objective: To evaluate the anti-inflammatory properties of compounds of the invention in a 12-O-tetradecanoylphorbol-13-acetate (TPA) induced chronic skin inflammation mouse model.\nTopically applied phorbol esters such as TPA induce skin inflammation involving edema, macrophage and T cell infiltration and epidermal hyperplasia (Alford et al., 1992), and this system has been used as an animal model for dermatitis, mimicking aspects of human inflammatory skin disorders. TPA is also known as a tumor promoter, so that agents which inhibit hyperproliferative or angiogenic actions of TPA may inhibit tumor promotion.\nDrug formulations: Compound AC was dissolved in isopropyl myristate:propylene glycol (1:1)+0.9% DMSO at the indicated concentrations. TPA was dissolved in acetone:water (99:1). Dexamethasone (0.06%) was dissolved in normal saline.\nMice: HSD-ICR(CD-1R) female mice at 8-10 weeks of age were used in this experiment.\nExperimental Design: Mice were placed into six groups of 10 mice each. 20 μL of 0.01% TPA was administered to each ear on days 0, 2, 4, 7, 9, 11, 13, 15, 18, 20, and 22. 20 μL of AC at various concentrations or 20 μL of dexamethasone solution was applied to the ears daily beginning on day 7, after inflammatory changes in ear thickness were established. Ear thickness was measured with calipers every three days."}, "[2]": {"tested_on": "imiquimod-induced dermatitis", "experimental": "Topical imiquimod (IMQ), a toll-like receptor agonist, has been established as a model of Inflammatory skin diseases including psoriasis and atopic dermatitis. Dermal inflammatory changes and gene expression in mice treated with topical imiquimod mimic human psoriasis and dermatitis (van der Fits et al., 2009; Swindell et al., 2011). The effect of a set of compounds of the invention were tested in a mouse model of imiquimod-induced dermatitis, with topical tacrolimus and dexamethasone as comparators for assessing safety and efficacy relative to standard agents used to treat dermatitis in humans.\nCommercial 0.1% tacrolimus ointment (ProTopic™[…]) was also used as an active comparator. Petrolatum containing 10% ethanol was used as a control treatment.\nFemale Balb/C mice (8 weeks old) were randomized and divided into groups of 5 animals each. Polyethylene collars were affixed to the mice to prevent them from easily scratching their ears. 5% imiquimod was applied to both ears of each mouse (20 microliters per ear) daily for 5 days, and then every other day for the full duration of the study. […] On day 7 after initiation of imiquimod, treatment with topical agents was started. Both ears of each mouse were treated with test ointments, with one compound per mouse.\nEar thickness and PASI assessments (Psoriasis Area and Severity Index, a standard psoriasis scoring system) were recorded twice per week throughout the study. The PASI score comprises the sum of evaluations of swelling, erythema and scaling on scales from 0 to 4; the maximum PASI score is 12, and the minimum, in unaffected skin, is 0)."}},
  "note": "Marks after values point to notes of the source that are not given here.",
  "data": [
    {"compound": "C[C@@H]1C[C@H]2[C@@H]3CCC4=CC(=O)C=C[C@]4(C)[C@@]3(F)[C@@H](O)C[C@]2(C)[C@@]1(O)C(=O)CO", "note": "[Dexamethasone, reference compound]", "values": [
      {"measurement": "Ear thickness (mm)", "setting": "[1]", "value": "0.301 ± 0.0722", "unit": "mm"},
      {"measurement": "Ear thickness, Mean ± SEM", "setting": "[2]; imiquimod-treated mice, topical ointment 0.06% active drug (dexamethasone 0.03%, tacrolimus 0.1%)", "value": "0.305 ± 0.111"},
      {"measurement": "Body Weight (mean ± SEM), Final", "setting": "[2]; mouse, in vivo", "value": "18.1 ± 0.5", "unit": "g"},
      {"measurement": "Body Weight (mean ± SEM), Initial", "setting": "[2]; mouse, in vivo", "value": "20.5 ± 0.6", "unit": "g"},
      {"measurement": "D BW (g)", "setting": "[2]; mouse, in vivo", "value": "−2.4 * g"},
      {"measurement": "Hair growth on the imiquimod-affected head area, in words", "setting": "[2]; mouse, in vivo", "value": "remained hairless"},
      {"measurement": "PASI Score, Mean ± SEM", "setting": "[2]; scale 0-12, topical ointment 0.06% active drug (dexamethasone 0.03%, tacrolimus 0.1%)", "value": "4.525 ± 0.375"}
    ]}
  ]
}
